According to the supplement of paper PMC10307832:

Key:
Test in all cases: relative viability (nuclei count vs DMSO), 5 days (fraction); higher = more cells survive
[1] = compound: COc1cc(Nc2ncc3c(n2)-c2ccc(Cl)cc2C(c2c(F)cccc2OC)=NC3)ccc1C(=O)O [Alisertib] + CC(=O)c1c(C)c2cnc(Nc3ccc(N4CCNCC4)cn3)nc2n(C2CCCC2)c1=O [Palbociclib] (partner 0.5 µM)
In short: (§1)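 Lung cancer cell lines in 1536-well plates got either a single drug or a fixed anchor-drug dose together with five library-drug doses (not always all listed) in √10 steps, by pin tool, on the day after seeding. Nuclei were counted after 5 days, and relative viability is the treated-to-vehicle ratio of nuclei counts. Values are medians of duplicate plates.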

[2] = compound: COc1cc(Nc2ncc3c(n2)-c2ccc(Cl)cc2C(c2c(F)cccc2OC)=NC3)ccc1C(=O)O [Alisertib] + CCNC(=O)c1noc(-c2cc(C(C)C)c(O)cc2O)c1-c1ccc(CN2CCOCC2)cc1 [Luminespib] (partner 0.01 µM)
In short: as §1

[3] = compound: COc1cc(Nc2ncc3c(n2)-c2ccc(Cl)cc2C(c2c(F)cccc2OC)=NC3)ccc1C(=O)O [Alisertib] + COc1cccc2cc(-c3nc([C@H]4CC[C@H](C(=O)O)CC4)n4ncnc(N)c34)[nH]c12 [OSI-027] (partner 0.5 µM)
In short: as §1

[4] = compound: COc1cc(Nc2ncc3c(n2)-c2ccc(Cl)cc2C(c2c(F)cccc2OC)=NC3)ccc1C(=O)O [Alisertib] + CS(=O)(=O)N1CCN(Cc2cc3nc(-c4cccc5[nH]ncc45)nc(N4CCOCC4)c3s2)CC1 [Pictilisib] (partner 1 µM)
In short: as §1

| Cell Line | relative viability ([1]; first compound 0.005 µM) | relative viability ([1]; first compound 0.01581 µM) | relative viability ([1]; first compound 0.05 µM) | relative viability ([1]; first compound 0.1581 µM) | relative viability ([1]; first compound 0.5 µM) | relative viability ([2]; first compound 0.005 µM) | relative viability ([2]; first compound 0.01581 µM) | relative viability ([2]; first compound 0.05 µM) | relative viability ([2]; first compound 0.1581 µM) | relative viability ([2]; first compound 0.5 µM) | relative viability ([3]; first compound 0.005 µM) | relative viability ([3]; first compound 0.01581 µM) | relative viability ([3]; first compound 0.05 µM) | relative viability ([3]; first compound 0.1581 µM) | relative viability ([3]; first compound 0.5 µM) | relative viability ([4]; first compound 0.005 µM) | relative viability ([4]; first compound 0.01581 µM) | relative viability ([4]; first compound 0.05 µM) | relative viability ([4]; first compound 0.1581 µM) | relative viability ([4]; first compound 0.5 µM) |
| --- | --- | --- | --- | --- | --- | --- | --- | --- | --- | --- | --- | --- | --- | --- | --- | --- | --- | --- | --- | --- |
| LCLC-103H | 0.44 | 0.485 | 0.385 | 0.335 | 0.4 | 0.949 | 0.883 | 0.278 | 0.311 | 0.269 | 0.427 | 0.438 | 0.473 | 0.201 | 0.204 | 0.588 | 0.687 | 0.573 | 0.211 | 0.206 |
| LOU-NH91 | 0.505 | 0.529 | 0.511 | 0.501 | 0.397 | 0.334 | 0.311 | 0.297 | 0.293 | 0.291 | 0.682 | 0.719 | 0.674 | 0.389 | 0.324 | 0.508 | 0.487 | 0.448 | 0.366 | 0.392 |
| NCI-H1650 | 0.292 | 0.328 | 0.233 | 0.116 | 0.188 | 0.19 | 0.194 | 0.171 | 0.196 | 0.177 | 0.565 | 0.501 | 0.278 | 0.108 | 0.166 | 0.527 | 0.461 | 0.328 | 0.151 | 0.166 |
| NCI-H3122 | 0.174 | 0.174 | 0.215 | 0.139 | 0.149 | 0.105 | 0.101 | 0.0716 | 0.0737 | 0.0805 | 0.86 | 0.754 | 0.599 | 0.336 | 0.149 | 0.584 | 0.62 | 0.586 | 0.266 | 0.198 |
| RERF-LC-KJ | 1.07 | 0.834 | 0.601 | 0.275 | 0.246 | 1.24 | 0.81 | 0.342 | 0.248 | 0.312 | 0.539 | 0.468 | 0.354 | 0.181 | 0.191 | 0.49 | 0.517 | 0.435 | 0.206 | 0.159 |
| NCI-H1651 | 0.476 | 0.486 | 0.333 | 0.21 | 0.189 | 0.81 | 0.782 | 0.306 | 0.263 | 0.169 | 0.621 | 0.609 | 0.417 | 0.288 | 0.203 | 0.51 | 0.429 | 0.289 | 0.161 | 0.121 |
| NCI-H2087 | 0.226 | 0.271 | 0.154 | 0.11 | 0.109 | 0.191 | 0.136 | 0.155 | 0.16 | 0.115 | 0.542 | 0.521 | 0.204 | 0.111 | 0.098 | 0.791 | 0.791 | 0.247 | 0.166 | 0.191 |
